Measured values as given in US4248887A, “Antibacterial compounds, processes for their preparation and compositions containing them” (priority 1978, dated 1981).
Converted amounts (≈) assume the structure as drawn. Like-named read-outs stand apart in the source and are kept apart here.

Key:
M. suipneumoniae Str. 11 = test: Anti-mycoplasma MIC; assay type: cell-based; settings: Mesomycoplasma hyopneumoniae; M. suipneumoniae Str. 11; Broth (Friis' broth, microtiter method); read-out: MIC
[1] = system: M. suipneumoniae J2206/183b; test: Anti-mycoplasma MIC; assay type: cell-based; settings: Mesomycoplasma hyopneumoniae, J2206/183B
M. dispar H225 = test: Anti-mycoplasma MIC; assay type: cell-based; settings: M. dispar H225; Broth (Friis' broth, microtiter method); read-out: MIC
M. dispar NCTC 10125 = test: Anti-mycoplasma MIC; assay type: cell-based; settings: M. dispar NCTC 10125; Broth (Friis' broth, microtiter method); read-out: MIC
M. pneumoniae 427a = test: Anti-mycoplasma MIC; assay type: cell-based; settings: Mycoplasmoides pneumoniae, read-out: MIC
M. pneumoniae ATCC 15492 = test: Anti-mycoplasma MIC; assay type: cell-based; settings: Mycoplasmoides pneumoniae, ATCC15492, M. pneumoniae ATCC 15492, read-out: MIC
M. bovis ATCC 25025 = test: microbe, parasite or virus in culture; assay type: cell-based; settings: ATCC25025
M. bovis NCTC 10131 = test: microbe, parasite or virus in culture; assay type: cell-based; settings: NCTC10131
M. fermentans MWKL4 = test: Anti-mycoplasma MIC; assay type: cell-based; settings: Mycoplasmopsis fermentans, read-out: MIC
M. pulmonis JB = test: Anti-mycoplasma MIC; assay type: cell-based; settings: Mycoplasmopsis pulmonis, read-out: MIC
M. hyorhinis ATCC 23234 = test: Anti-mycoplasma MIC; assay type: cell-based; settings: Mesomycoplasma hyorhinis, ATCC23234; M. hyorhinis ATCC 23234; Agar (serial dilution in Friis' agar); read-out: MIC
[2] = system: M. hyosynoviae ATCC 25591; test: Anti-mycoplasma MIC; assay type: cell-based; settings: M. hyosynoviae ATCC 25591; Agar (serial dilution in Friis' agar); read-out: MIC
[3] = system: M. arthritidis ATCC 14124; test: Anti-mycoplasma MIC; assay type: cell-based; settings: M. arthritidis ATCC 14124; Agar (serial dilution in Friis' agar); read-out: MIC
M. gallisepticum S6 = test: Anti-mycoplasma MIC; assay type: cell-based; settings: Mycoplasmoides gallisepticum; M. gallisepticum S6; Agar (serial dilution in Friis' agar); read-out: MIC
M. synoviae ATCC 25204 = test: Anti-mycoplasma MIC; assay type: cell-based; settings: Mycoplasmopsis synoviae, ATCC25204; M. synoviae ATCC 25204; Agar (serial dilution in Friis' agar); read-out: MIC
[4] = system: M. alkalescens NCTC 10135; test: Anti-mycoplasma MIC; assay type: cell-based; settings: M. alkalescens NCTC 10135; Agar (serial dilution in Friis' agar); read-out: MIC
[5] = system: M. bovigenitalium ATCC 14173; test: Anti-mycoplasma MIC; assay type: cell-based; settings: M. bovigenitalium ATCC 14173; Agar (serial dilution in Friis' agar); read-out: MIC
Bord. bronchiseptica BO8 = test: MIC against veterinary bacteria; settings: Bordetella bronchiseptica
Bord. bronchiseptica BO9 = test: MIC against veterinary bacteria; settings: Bordetella bronchiseptica
Past. multocida PA1 = test: MIC against veterinary bacteria; settings: Pasteurella multocida
Past. multocida PA2 = test: MIC against veterinary bacteria; settings: Pasteurella multocida
Past. haemolytica PA5 = test: MIC against veterinary bacteria; settings: Mannheimia haemolytica
[6] = system: Staph. aureus B4 (pen resistant); test: MIC against veterinary bacteria; settings: Staphylococcus aureus
[7] = system: Staph. aureus 152 (pen sensitive); test: MIC against veterinary bacteria; settings: Staphylococcus aureus
Strep. uberis SPU1 = test: MIC against veterinary bacteria; settings: Streptococcus uberis
Strep. dysgalactiae SPD1 = test: MIC against veterinary bacteria; settings: Streptococcus dysgalactiae
Strep. agalactiae SPA1 = test: MIC against veterinary bacteria; settings: Streptococcus agalactiae
Past. multocida 1633 = test: MIC by serial dilution in nutrient agar (human bacteria); settings: Pasteurella multocida
H. influenzae Q1 = test: as above; settings: Haemophilus influenzae
H. influenzae Wy21 = test: as above; settings: Haemophilus influenzae
B. subtilis = test: as above; settings: Bacillus subtilis
Staph. aureus Oxford = test: as above; settings: Staphylococcus aureus
Staph. aureus Russell = test: as above; settings: Staphylococcus aureus
Strep. pyogenes A 64/848 = test: as above; settings: Streptococcus pyogenes, A64/848
Strep. pyogenes B 2788 = test: as above; settings: Streptococcus pyogenes, B2788
Strep. pyogenes C 2761 = test: as above; settings: Streptococcus pyogenes, C2761
[8] = Agar (serial dilution in Friis' agar)
[9] = Broth (Friis' broth, microtiter method)

## C/C(=C\C(=O)OCCCCCCO)CC1OCC(C/C=C/C(C)C(C)O)C(O)C1O (stereo not shown) [6-Hydroxyhexyl, 6-Hydroxyhexyl Monate C]
M. suipneumoniae Str. 11
  MIC: 0.625 µg/mL (≈ 1.46 µM)
[1]
  MIC: 1.25 µg/mL (≈ 2.92 µM)
M. dispar H225
  MIC: 0.156 µg/mL (≈ 0.364 µM)
M. dispar NCTC 10125
  MIC: 0.156 µg/mL (≈ 0.364 µM)
M. pneumoniae 427a; [8]
  MIC: 1.25 µg/mL (≈ 2.92 µM)
M. pneumoniae 427a; [9]
  MIC: 0.625 µg/mL (≈ 1.46 µM)
M. pneumoniae ATCC 15492; [8]
  MIC: 1.25 µg/mL (≈ 2.92 µM)
M. pneumoniae ATCC 15492; [9]
  MIC: 0.625 µg/mL (≈ 1.46 µM)
M. bovis ATCC 25025
  MIC: < 0.02 µg/mL
M. bovis NCTC 10131
  MIC: < 0.02 µg/mL
M. fermentans MWKL4; [8]
  MIC: 0.078 µg/mL (≈ 0.182 µM)
M. fermentans MWKL4; [9]
  MIC: < 0.02 µg/mL
M. pulmonis JB; [8]
  MIC: 0.039 µg/mL (≈ 0.091 µM)
M. pulmonis JB; [9]
  MIC: < 0.02 µg/mL
M. hyorhinis ATCC 23234
  MIC: 1.25 µg/mL (≈ 2.92 µM)
[2]
  MIC: 0.078 µg/mL (≈ 0.182 µM)
[3]
  MIC: 5 µg/mL (≈ 11.7 µM)
M. gallisepticum S6
  MIC: 10 µg/mL (≈ 23.3 µM)
M. synoviae ATCC 25204
  MIC: < 0.02 µg/mL
[4]
  MIC: < 0.02 µg/mL
[5]
  MIC: 0.039 µg/mL (≈ 0.091 µM)
Bord. bronchiseptica BO8
  MIC: > 80 µg/mL
Bord. bronchiseptica BO9
  MIC: 5 µg/mL (≈ 11.7 µM)
Past. multocida PA1
  MIC: 2.5 µg/mL (≈ 5.83 µM)
Past. multocida PA2
  MIC: 2.5 µg/mL (≈ 5.83 µM)
Past. haemolytica PA5
  MIC: 40 µg/mL (≈ 93.3 µM)
[6]
  MIC: 1.25 µg/mL (≈ 2.92 µM)
[7]
  MIC: 1.25 µg/mL (≈ 2.92 µM)
Strep. uberis SPU1
  MIC: 0.312 µg/mL (≈ 0.728 µM)
Strep. dysgalactiae SPD1
  MIC: 1.25 µg/mL (≈ 2.92 µM)
Strep. agalactiae SPA1
  MIC: 5 µg/mL (≈ 11.7 µM)
Past. multocida 1633
  MIC: 1 µg/mL (≈ 2.33 µM)
H. influenzae Q1
  MIC: 0.2 µg/mL (≈ 0.467 µM)
H. influenzae Wy21
  MIC: 0.2 µg/mL (≈ 0.467 µM)
B. subtilis
  MIC: 0.5 µg/mL (≈ 1.17 µM)
Staph. aureus Oxford
  MIC: 0.2 µg/mL (≈ 0.467 µM)
Staph. aureus Russell
  MIC: 1 µg/mL (≈ 2.33 µM)
Strep. pyogenes A 64/848
  MIC: 1 µg/mL (≈ 2.33 µM)
Strep. pyogenes B 2788
  MIC: 5 µg/mL (≈ 11.7 µM)
Strep. pyogenes C 2761
  MIC: 5 µg/mL (≈ 11.7 µM)
